# US10064815B2, “Formulations and methods for vaginal delivery of antiprogestins” (REPROS THERAPEUTICS INC., priority 2014, dated 2018)
# Tests used:
# vaginal mucous membrane = test: Cumulative vaginal mucous membrane irritancy in rabbits; type: in vivo, New Zealand White rabbits; conditions: rabbit
# Experimental: Pullulan capsules (Capsugel NPcaps®, size 0) comprising CDB-4124 were administered once daily for 10 consecutive days intravaginally to 10 healthy virgin female New Zealand White rabbits in order to determine the cumulative vaginal mucous membrane irritancy potential and to obtain plasma samples for pharmacokinetic analysis. Five rabbits were assigned to each of two groups, the first dosed with vehicle control (pullulan capsules with 0.5 ml PEG 1000 fill) introduced into the upper vaginal vault of each rabbit using a syringe applicator (Group 1), the second with CDB-4124 (pullulan capsules with 12 mg CDB-4124 in 0.5 ml PEG 1000) (Group 2). The external vaginal mucosa of each animal was examined for erythema, edema and discharge prior to the initial dose, immediately prior to each treatment and prior to sacrifice. All animals were examined for gross pathology.
# [1] = Pharmacokinetics of vaginal pullulan capsules with 12 mg CDB-4124 in women with uterine fibroids, compared with oral doses; type: in vivo, human
# Experimental: (§1) Capsugel NPcaps® were filled with the excipient fill formulations described above with 12 mg CDB-4124 (telapristone acetate) and administered vaginally to human females with uterine fibroids once per day for a period of 2 weeks to determine the length of time required to reach steady state and overall systemic exposure of the parent compound (CDB-4124) and the primary metabolite (CDB-4453). The capsules were administered using a commercially available vaginal applicator modified by reversing the insert (see FIG. 5). The unmodified applicator comprises a barrel and plunger with the barrel having a relatively wide opening on one end and a relatively narrow opening on the other end. The applicator is designed such that the drug is placed in the end with the larger diameter opening (entrance end), the applicator is inserted into the vagina and the plunger is used to push the drug out the barrel and into the vagina. For insertion of the filled NPcaps, the shell end of the capsule (having a […] diameter) was placed into the narrow opening in the barrel, leaving the cap exposed. […] Pharmacokinetic data was then obtained from patients.
# [2] = system: human females with uterine fibroids; test: Efficacy of vaginal 12 mg CDB-4124 in women with uterine fibroids (menses, PBAC, UFSQOL); type: in vivo
# Experimental: as §1
# In a previous oral study, doses of 1, 3, 6, 9 and 12 mg of CDB-4124 were administered for a period of 10 weeks. […] Cessation of menses directly correlates to efficacy of an oral dose in both uterine fibroids and endometriosis. […] Given the overall low exposure of the 12 mg dose, in those women that continued to menstruate, further improvements in reduction of symptoms are expected with longer exposure to the drug. In efficacy studies in which CDB-4124 was administered orally, women experienced a nearly 50% reduction in mean fibroid size at a 25 mg dose. When those women were then escalated to a 50 mg oral dose for an additional four months, fibroid size was reduced to approximately 25% of the initial volume. […] It is expected that vaginal delivery of CDB-4124 at the 12 mg dose will have greater activity than the oral 50 mg dose despite a maximum exposure 1/100th of the 50 mg oral dose. […]
# uterine fibroids = test: Previous oral studies of CDB-4124 (menses, fibroid size, symptoms); type: in vivo, human
# Experimental: In a previous oral study, doses of 1, 3, 6, 9 and 12 mg of CDB-4124 were administered for a period of 10 weeks. […] Cessation of menses directly correlates to efficacy of an oral dose in both uterine fibroids and endometriosis. […] Given the overall low exposure of the 12 mg dose, in those women that continued to menstruate, further improvements in reduction of symptoms are expected with longer exposure to the drug. In efficacy studies in which CDB-4124 was administered orally, women experienced a nearly 50% reduction in mean fibroid size at a 25 mg dose. When those women were then escalated to a 50 mg oral dose for an additional four months, fibroid size was reduced to approximately 25% of the initial volume. […] It is expected that vaginal delivery of CDB-4124 at the 12 mg dose will have greater activity than the oral 50 mg dose despite a maximum exposure 1/100th of the 50 mg oral dose. Even with this low exposure after only 4 weeks of treatment, significant improvements in fibroid related condition have been observed.
# [3] = 12 mg CDB-4124 vaginally daily for 10 days
# [4] = 12 mg vaginal, pair-wise comparison of 6 women
structure (smiles),measurement,setting,value
"COCC(=O)[C@@]1(OC(C)=O)CC[C@H]2[C@@H]3CCC4=CC(=O)CCC4=C3[C@@H](c3ccc(N(C)C)cc3)C[C@@]21C [CDB-4124, 21-methoxy-17α-acetoxy-11β-(4 N,N-dimethylaminophenyl)-19-norpregna-4,9-diene-3,20-dione]","gross findings in ovaries, uterus, vagina",vaginal mucous membrane; [3],No gross findings
same,histopathological findings,vaginal mucous membrane; [3],nor were any histopathological findings observed
same,"external vaginal mucosa (erythema, edema)","vaginal mucous membrane; 12 mg CDB-4124 vaginally daily for 10 days, 2/5 rabbits on 4 occasions, otherwise normal",very slight erythema and/or edema
same,irritation index,"vaginal mucous membrane; pullulan capsules, 12 mg CDB-4124 in 0.5 ml PEG 1000, vaginally daily for 10 days",none
same,maximum exposure relative to the 50 mg oral dose,[1]; 12 mg vaginal dose,1/100
same,Cmax compared with oral doses,"[1]; 12 mg vaginal versus 1, 3, 6, 9, 12 mg oral, FIG. 2",lower than any of the oral doses
same,time to steady state concentration,"[1]; women with uterine fibroids, 12 mg vaginal pullulan capsule once per day",within one week
same,systemic exposure (AUC) relative to an equivalent oral dose,"[1]; women with uterine fibroids, 12 mg vaginal versus oral, FIG. 1",about ⅙
same,cessation of menses (number of women),"[2]; 12 mg vaginal dose, 6 women compared",3
same,"statistical significance (p) of reduction in menstrual bleeding, Pictorial Blood Loss Assessment Chart (PBAC)",[2]; [4],< 0.05
same,"statistical significance (p) of reduction in overall uterine fibroid symptoms, UFSQOL",[2]; [4],< 0.05
same,fibroid size as % of the initial volume,uterine fibroids; escalated to 50 mg oral for an additional four months,approximately 25%
same,efficacy of 1 mg oral dose,uterine fibroids; oral 1 mg,ineffective
same,reduction in mean fibroid size,uterine fibroids; oral 25 mg dose,~50%
same,tolerability,"uterine fibroids; oral 1, 3, 6, 9 and 12 mg for 10 weeks",all doses were well tolerated
same,fibroid symptoms scored by UFSQOL,uterine fibroids; oral CDB-4124,"in general, symptom free"
same,lowest dose inducing reliable cessation of menses,"uterine fibroids; oral, 10 weeks",3 mg
